Earlier results in US20250295592A1, “Method for Controlled Release Oral Drug Delivery” (priority 2024, published 2025).
Like-named read-outs stand apart in the source and are kept apart here.

[1] = human stomach, acidic gastric contents

Compound	absorption from the stomach [1]	absorption from the stomach (in vivo)
CCCC(C)C1(CC)C(=O)NC(=S)NC1=O (stereo not shown) [thiopental]	readily absorbed	
CC(=O)Oc1ccccc1C(=O)O [aspirin]	readily absorbed	
C=CCC1(C(C)CCC)C(=O)NC(=O)NC1=O (stereo not shown) [secobarbital]	readily absorbed	
Cc1cc(=O)n(-c2ccccc2)n1C [antipyrine]		readily absorbed
